From US20240309015A1, “Methods for the Treatment of Fibrotic Disease” (SHY Therapeutics, LLC, priority 2021, published 2024)

Columns and labels:
[1] = Observation for overt toxicity in D2-mdx mice; assay type: in vivo; settings: male D2-mdx mice, 100 mg/kg IP daily for 3 days
Description: Experimental Design: Compound 9 was suspended in 0.5% Hydroxypropyl Methylcellulose (HPMC)/0.1% Tween® 80 to a final concentration of 10 mg/mL. The dosing solutions were prepared prior to the start of the test and were stored in the dark and maintained in frozen aliquots. Doses were thawed prior to administration. Male D2-mdx (JAX Stock No: 013141) mice were sourced from The Jackson Laboratory and housed in solid bottom cages with standard chow and water ad libitum. Dosing was initiated when animals were −3 weeks old. Animals were dosed daily by intraperitoneal (IP) injection at 100 mg/kg or vehicle for 3 days. […] Mice were sacrificed by CO2 euthanasia approximately 6 hours after their day 3 dosing. Heart, diaphragm, quadriceps, tibialis anterior (TA) samples were collected at termination on day 3 and snap frozen. These samples were shipped on dry ice for analysis, and were stored at −80° C.

[2] = system: KRas wild type; assay: Ras GTP Binding Domain Inhibition Assay, KRas wild type; settings: at 20 μM; for KRas wild type + SOS: % inh.: with SOS; for KRas wild type: % inh.: without SOS
Procedure, shortened: (§1)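 Read-out is fluorescence of Cy3- or Cy5-GTP (100 nM, 45 min, room temperature) still bound after three washes. Beforehand, His-tagged protein on nickel wells was exposed to compound (20 μM, or a dilution series for IC50) for 3 h, with or without Sos in the last hour.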

[3] = system: KRas G12D mutant; assay: Ras GTP Binding Domain Inhibition Assay, KRas G12D mutant; settings: at 20 μM; for KRas G12D mutant + SOS: % inh.: with SOS; for KRas G12D mutant: % inh.: without SOS
Procedure, shortened: as §1

[4] = system: KRas G12C mutant; assay: Ras GTP Binding Domain Inhibition Assay, KRas G12C mutant; settings: at 20 μM; for KRas G12C mutant + SOS: % inh.: with SOS; for KRas G12C mutant: % inh.: without SOS
Procedure, shortened: as §1

[5] = Assessment of plasma exposure in DBA/2J mice; assay type: in vivo, mouse; settings: Group 4: 100 mg/kg PO, Vehicle 2 (Solubilized Lipid)
[6] = Observation for overt toxicity in DBA/2J mice; assay type: in vivo; settings: male DBA/2J mice, single dose, 100 mg/kg IP
Description: Experimental Design: Compound 9 was suspended in 0.5% Hydroxypropyl Methylcellulose (HPMC)/0.1% Tween® 80 to a final concentration of 10 mg/mL. The dosing solutions were prepared prior to the start of the test. Male DBA/2J mice (Jackson Stock No: 000671) were housed in solid bottom cages with standard chow and water ad libitum. Dosing was initiated when animals were 7-8 weeks old. Mice were dosed at a volume of 10 mL/kg by intraperitoneal (IP) injection at 100 mg/kg or vehicle. […] Blood was collected at 15 min, 30 min, 1 h, 2 h, 4 h, 7 h, 16 h, 24 h by cardiac puncture, mixed gently 8 times and put on ice until centrifuged within 30 minutes of collection. The plasma was transferred to a 96-well plate for analysis of test compound levels.

[7] = system: Smad2 phosphorylation; assay: Phospho-Smad2 western blot of D2-mdx mouse tissues; assay type: in vivo; settings: 100 mg/kg IP daily for 3 days
Text: (§2) The experiment described herein was designed to monitor the effects of Compound 9 on two biomarkers related to fibrosis in D2-mdx mice. The first biomarker is Smad2 phosphorylation, and the second is the levels of serum albumin in the different muscle tissues. Fibrosis causes disruption of the fine transparent tubular sheath which envelops the fibers of skeletal muscles, this can result in various molecules from the blood and interstitial fluid leaking into myofibres. A classic example is serum albumin, which can be identified in tissue sections and considered to be hallmark of myofibre permeability.
(§3) Experimental Design: Compound 9 was suspended in 0.5% Hydroxypropyl Methylcellulose (HPMC)/0.1% Tween® 80 to a final concentration of 10 mg/mL. […]
(§4) Tissue protein extraction: Frozen tissues were placed on ice in prechilled tubes with 30 μL/mg with of ice-cold RIPA buffer+Halt™ Protease & Phosphatase Inhibitor Cocktail. […] Supernatant was removed and protein concentration determined by BCA assay.
(§5) Western blot protocol: Equal amounts of protein (15-50 μg) were separated by SDS-PAGE and transferred to nitrocellulose membranes (Invitrogen by Thermo Fisher Scientific). […] Membranes were blocked with 10% milk and albumin levels were assessed by incubating overnight at 4° C. with albumin antibody (Cell Signaling Technology #4929). […]

[8] = system: Rho-A; assay: Ras GTP Binding Domain Inhibition Assay, Rho-A; settings: at 20 μM; for Rho-A: % inh.: without SOS
Procedure, shortened: as §1

[9] = system: serum albumin; assay: Albumin western blot of D2-mdx mouse tissues; assay type: in vivo; settings: D2-mdx mice, 100 mg/kg IP daily for 3 days
Text: as §2, §3, §4, §5

[10] = system: TNFα; assay: Mouse TNF Alpha Quantification Assay (LPS-stimulated RAW 264.7); assay type: cell-based; set-up: dose or concentration left out as unconfirmed; settings: RAW264.7, ELISA, read-out: TNFα: % inh.
[11] = system: Smad2/3 phosphorylation; assay: Phospho-Smad2/3 Inhibition Assay in PANC-1; assay type: cell-based; settings: Homo sapiens; 10 μM compound, 3 h; TGF-b1 stimulated PANC-1; western blot; read-out: % inh of Smad2/3 phosphorylation in PANC-1
Procedure, shortened: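 Serum-starved cells (0.5% FBS overnight) pretreated 3 h at 37 °C with compound at 10 μM or serial dilutions for IC50, in 0.3% DMSO. TGF-b1 10 ng/ml stimulation: 1 h for Panc-1 (human), 20 min for C2C12 (mouse). Phospho-Smad2 (Ser465/467) and phospho-Smad3 (Ser423/425) measured by western blot of lysates.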

[12] = system: IL-6; assay: Mouse IL6 Quantification Assay (LPS-stimulated RAW 264.7); assay type: cell-based; set-up: dose or concentration left out as unconfirmed; settings: RAW264.7, ELISA, read-out: IL-6: % inh.

| KRas wild type + SOS: % inh. [2] | KRas wild type: % inh. [2] | KRas G12D mutant + SOS: % inh. ([3]; Table 7) | KRas G12D mutant + SOS: % inh. ([3]; Table 8) | KRas G12D mutant: % inh. ([3]; Table 7) | KRas G12D mutant: % inh. ([3]; Table 8) | KRas G12C mutant + SOS: % inh. [4] | KRas G12C mutant: % inh. [4] | Rho-A: % inh. [8] | SMILES | findings of overt toxicity [1] | Tmax [5] | findings of overt toxicity [6] | Smad2 phosphorylation in the diaphragm compared to control vehicle mice [7] | Smad2 phosphorylation in the heart ([7]; D2-mdx mice) | Rho-A + SOS: % inh. ([8]; with SOS) | serum albumin levels in the heart [9] | serum albumin levels in the tibialis anterior and quadricep muscles [9] | inhibition [10] | inhibition at 10 µM [11] | inhibition [12] |
| --- | --- | --- | --- | --- | --- | --- | --- | --- | --- | --- | --- | --- | --- | --- | --- | --- | --- | --- | --- | --- |
| D (D = 76-100% inhibition) | C (C = 46-75% inhibition) | D (D = 76-100% inhibition) | D (D = 76-100% inhibition) | B (B = 26-45% inhibition) | B (B = 26-45% inhibition) | D (D = 76-100% inhibition) | C (C = 46-75% inhibition) | B (B = 26-45% inhibition) | COCCn1ccc(-c2sc3nc(-c4nccn4C)nc(NC[C@H]4CC[C@H]4COC)c3c2C)n1 (racemic) [Compound 38, rac-6-(1-(2-Methoxyethyl)-1H-pyrazol-3-yl)-N-(((1S,2R)-2-(methoxymethyl)cyclobutyl)methyl)-5-methyl-2-(1-methyl-1H-imidazol-2-yl)thieno[2,3-d]pyrimidin-4-amine] | – | – | – | – | – | – | – | – | 76 to 100% | 46 to 75% | 76 to 100% |
| D (D = 76-100% inhibition) | B (B = 26-45% inhibition) | D (D = 76-100% inhibition) | D (D = 76-100% inhibition) | C (C = 46-75% inhibition) | C (C = 46-75% inhibition) | D (D = 76-100% inhibition) | C (C = 46-75% inhibition) | C (C = 46-75% inhibition) | Cc1c(-c2ccn(C(C)C)n2)sc2nc(-c3nccn3C)nc(NCC3COCCN3C)c12 (racemic) [Compound 24, rac-6-(1-Isopropyl-1H-pyrazol-3-yl)-5-methyl-2-(1-methyl-1H-imidazol-2-yl)-N-((4-methylmorpholin-3-yl)methyl)thieno[2,3-d]pyrimidin-4-amine] | – | – | – | – | – | – | – | – | 1 to 25% | 0% | 76 to 100% |
| C (C = 46-75% inhibition) | B (B = 26-45% inhibition) | C (C = 46-75% inhibition) | C (C = 46-75% inhibition) | C (C = 46-75% inhibition) | C (C = 46-75% inhibition) | D (D = 76-100% inhibition) | C (C = 46-75% inhibition) | C (C = 46-75% inhibition) | COc1cccc(Nc2nc(-c3nccn3C)nc3sc(-c4ccn(C(C)C)n4)c(C)c23)c1 [Compound 17, 6-(1-Isopropyl-1H-pyrazol-3-yl)-N-(3-methoxyphenyl)-5-methyl-2-(1-methyl-1H-imidazol-2-yl)thieno[2,3-d]pyrimidin-4-amine] | – | – | – | – | – | – | – | – | 76 to 100% | 46 to 75% | 76 to 100% |

| SMILES | KRas wild type + SOS: % inh. [2] | KRas wild type: % inh. [2] | KRas G12D mutant + SOS: % inh. ([3]; Table 7) | KRas G12D mutant + SOS: % inh. ([3]; Table 8) | KRas G12D mutant: % inh. ([3]; Table 7) | KRas G12D mutant: % inh. ([3]; Table 8) | KRas G12C mutant + SOS: % inh. [4] | KRas G12C mutant: % inh. [4] | Rho-A: % inh. [8] | findings of overt toxicity [1] | Tmax [5] | findings of overt toxicity [6] | Smad2 phosphorylation in the diaphragm compared to control vehicle mice [7] | Smad2 phosphorylation in the heart ([7]; D2-mdx mice) | Rho-A + SOS: % inh. ([8]; with SOS) | serum albumin levels in the heart [9] | serum albumin levels in the tibialis anterior and quadricep muscles [9] | inhibition [10] | inhibition at 10 µM [11] | inhibition [12] |
| --- | --- | --- | --- | --- | --- | --- | --- | --- | --- | --- | --- | --- | --- | --- | --- | --- | --- | --- | --- | --- |
| COCCNc1nc(-c2nccn2C)nc2sc(-c3cccc(OC)c3Cl)c(-c3ccccc3)c12 [Compound 9, 6-(2-Chloro-3-methoxyphenyl)-N-(2-methoxyethyl)-2-(1-methyl-1H-imidazol-2-yl)-5-phenylthieno[2,3-d]pyrimidin-4-amine] | D (D = 76-100% inhibition) | C (C = 46-75% inhibition) | C (C = 46-75% inhibition) | C (C = 46-75% inhibition) | C (C = 46-75% inhibition) | C (C = 46-75% inhibition) | D (D = 76-100% inhibition) | B (B = 26-45% inhibition) | B (B = 26-45% inhibition) | No findings of overt toxicity were observed | 4 h | No findings of overt toxicity were observed | inhibition of Smad2 phosphorylation | No changes | B (B = 26-45% inhibition) | No changes | clear decrease | – | – | – |
